Data taken from ChEMBL document CHEMBL1146474, “Design, synthesis, and bioactivities of steroid-linked taxol analogues as potential targeted drugs for prostate and breast cancer” (J Nat Prod, 2004).

Legend:
[1] = Induction of tubulin assembly at 0.2 uM relative to taxol
[2] = Induction of tubulin assembly at 1 uM relative to taxol
[3] = tested on: MDA-MB-231; experiment: Antiproliferative activity against human MDA-MB-231 cells assessed as inhibition of cell survival after 48 hrs by MTS method; format: functional
[4] = tested on: MCF7; experiment: Antiproliferative activity against human MCF7 cells assessed as reduction of cell survival after 48 hrs by MTS method; format: functional
[5] = tested on: MCF7; experiment: Antiproliferative activity against human MCF7 cells assessed as reduction of cell survival after 7 days by MTS method; format: functional
[6] = tested on: A2780; experiment: cells; conditions: Homo sapiens, A2780, 48 h
[7] = tested on: PC-3; experiment: cells; conditions: Homo sapiens, PC-3, 48 h
[8] = tested on: MDA-MB-231; experiment: cells; conditions: Homo sapiens, MDA-MB-231, 48 h
[9] = tested on: MCF7; experiment: cells; conditions: Homo sapiens, MCF7, 48 h

SMILES	Activity [1] [%]	Activity [2] [%]	inhibition (INH) [3] [%]	Activity [4] [%]	Activity [5] [%]	IC50 [6] [nM]	IC50 [7] [nM]	IC50 [8] [nM]	IC50 [9] [nM]
CC(=O)O[C@H]1C(=O)[C@@]2(C)[C@H]([C@H](OC(=O)c3ccccc3)[C@]3(O)C[C@H](OC(=O)[C@H](OC(=O)/C=C/C[C@@H]4C[C@H]5[C@@H]6CCc7cc(O)ccc7[C@H]6CC[C@]5(C)[C@H]4O)[C@@H](NC(=O)c4ccccc4)c4ccccc4)C(C)=C1C3(C)C)[C@]1(OC(C)=O)CO[C@@H]1C[C@@H]2O	45	55	–	–	–	–	–	–	–
CC(=O)O[C@H]1C(=O)[C@@]2(C)[C@H]([C@H](OC(=O)c3ccccc3)[C@]3(O)C[C@H](OC(=O)[C@H](O)[C@@H](NC(=O)c4ccccc4)c4ccccc4)C(C)=C1C3(C)C)[C@]1(OC(C)=O)CO[C@@H]1C[C@@H]2O [PACLITAXEL]	–	–	85	20	70	–	–	–	–
CC(=O)O[C@H]1C(=O)[C@]2(C)[C@@H](OC(=O)/C=C/C[C@@H]3C[C@H]4[C@@H]5CCc6cc(O)ccc6[C@H]5CC[C@]4(C)[C@H]3O)C[C@H]3OC[C@@]3(OC(C)=O)[C@H]2[C@H](OC(=O)c2ccccc2)[C@]2(O)C[C@H](OC(=O)[C@H](O)[C@@H](NC(=O)c3ccccc3)c3ccccc3)C(C)=C1C2(C)C	100	100	–	–	–	8300	120	2200	1600
CC(=O)O[C@@]12CO[C@@H]1C[C@H](O)[C@@]1(C)C(=O)[C@H](OC(=O)CCC(=O)O[C@@H]3C[C@]4(C)[C@@H](O)CC[C@H]4[C@@H]4CCc5cc(O)ccc5[C@H]43)C3=C(C)[C@@H](OC(=O)[C@H](O)[C@@H](NC(=O)c4ccccc4)c4ccccc4)C[C@@](O)([C@@H](OC(=O)c4ccccc4)[C@H]21)C3(C)C	100	100	–	–	–	1900	68	304	103
CC(=O)O[C@H]1C(=O)[C@]2(C)[C@@H](OC(=O)CCC(=O)O[C@@H]3C[C@]4(C)[C@@H](O)CC[C@H]4[C@@H]4CCc5cc(O)ccc5[C@H]43)C[C@H]3OC[C@@]3(OC(C)=O)[C@H]2[C@H](OC(=O)c2ccccc2)[C@]2(O)C[C@H](OC(=O)[C@H](O)[C@@H](NC(=O)c3ccccc3)c3ccccc3)C(C)=C1C2(C)C	100	100	85	20	70	2900	320	780	557
CC(=O)O[C@H]1C(=O)[C@@]2(C)[C@H]([C@H](OC(=O)c3ccccc3)[C@]3(O)C[C@H](OC(=O)[C@H](OC(=O)CCC(=O)O[C@@H]4C[C@]5(C)[C@@H](O)CC[C@H]5[C@@H]5CCc6cc(O)ccc6[C@H]54)[C@@H](NC(=O)c4ccccc4)c4ccccc4)C(C)=C1C3(C)C)[C@]1(OC(C)=O)CO[C@@H]1C[C@@H]2O	60	60	–	–	–	–	–	–	–
